Assay results reported in patent US9801901B2, “Alginate oligomers for use in overcoming multidrug resistance in bacteria” (priority 2009, dated 2017).
≈ marks a conversion by molar mass, not a printed value. Where two headings read alike, the source gives them in different places. Marks after values point to notes of the source that are not given here.

Columns and labels:
[1] = system: Acinetobacter baumannii (Egypt, V9); test: MIC-assay, Mueller-Hinton broth with G-block alginate, 384-well, OD600
[2] = system: V12 5725 (Wales) Klebsiella pneumoniae; test: MIC assay, CAMHB with alginate oligomer, no visible growth; type: cell-based; settings: Table 5, V12 MDR Kleb pneu
[3] = system: V9 (Egypt) Acinetobacter baumannii; test: as above; type: cell-based; settings: Table 5, V9 MDR Acin. baum
[4] = system: Burkholderia cepacia (1322, V23); test: MIC-assay, Mueller-Hinton broth with G-block alginate, 384-well, OD600
[5] = system: Acinetobacter baumannii MDR ACB from Libya (V4); test: MIC assay, CAMHB with alginate oligomer, no visible growth; type: cell-based; settings: for MIC: Acinetobacter baumannii, read-out: MIC
Excerpt: The study described in Example 1 was repeated with the following strains of bacteria and antibiotics as detailed in Tables 4, 5 and 6.
The study described in Example 1 was repeated with the following strains of Acinetobacter baumannii, antibiotics and M-block alginate oligomer in place of OligoG CF-5/20 as detailed in Table 7. The M-block oligomer is 100% M with a DPn of 15 to 18,

[6] = system: Acinetobacter lwoffii (Egypt, V10); test: MIC-assay, Mueller-Hinton broth with G-block alginate, 384-well, OD600
[7] = system: strains of E. coli displaying MDR phenotypes; test: MIC-assay, Mueller-Hinton broth with G-block alginate, 384-well, OD600 (Table 11); type: cell-based; settings: Escherichia coli, Escherichia coli (5702, Wales, V11) MDR, read-out: MIC
Excerpt: Minimum inhibitory concentration (MICs) of different antibiotics for strains of E. coli and Providencia stuartii displaying MDR phenotypes in the presence of varying concentrations of OligoCF-5/20 (0-10%). (MIC values are expressed in μg ml^−1).

[8] = system: PA01 Pseudomonas aeruginosa ATCC 15692; test: MIC assay, two-fold antibiotic dilutions in CAMHB with alginate oligomer, no visible growth; type: cell-based; settings: Pseudomonas aeruginosa, ATCC15692, Table 1, PA01, read-out: MIC
[9] = system: Pseudomonas aeruginosa ATCC 39324, mucoid type strain (R79); test: MIC assay, CAMHB with alginate oligomer, no visible growth; type: cell-based; settings: Pseudomonas aeruginosa, ATCC39324, Table 1, R79, read-out: MIC
[10] = system: strains of Klebsiella pneumoniae displaying MDR phenotypes; test: MIC-assay, Mueller-Hinton broth with G-block alginate, 384-well, OD600 (Table 10); type: cell-based; settings: read-out: MIC
Excerpt: Minimum inhibitory concentration (MICs) of different antibiotics for strains of Klebsiella pneumoniae displaying MDR phenotypes in the presence of varying concentrations of OligoCF-5/20 (0-10%). (MIC values are expressed in μg ml^−1).

[11] = system: Staphylococcus aureus (MRSA) U50; test: MIC-assay, Mueller-Hinton broth with G-block alginate, 384-well, OD600 (Table 12); type: cell-based; settings: MRSA 1040s, U50 MDR, read-out: MIC
Excerpt: (§1) Minimum inhibitory concentration (MICs) of different antibiotics for strains of Streptococcus oralis and Staphylococcus aureus (MRSA) displaying MDR phenotypes in the presence of varying concentrations of OligoCF-5/20 (0-10%). (MIC values are expressed in μg ml^−1).

Streptococcus oralis = test: as above; type: cell-based; settings: Streptococcus oralis (5610, V17) MDR
Excerpt: as §1

[12] = system: V10 (Egypt) Acinetobacter lwoffii; test: MIC assay, CAMHB with alginate oligomer, no visible growth; type: cell-based; settings: Table 5, V10 MDR Acin. lwoff
[13] = Table 9, G-block (OligoCF-5/20) 0%
[14] = Table 9, G-block (OligoCF-5/20) 2%
[15] = Table 9, G-block (OligoCF-5/20) 6%
[16] = Table 9, G-block (OligoCF-5/20) 10%
[17] = Klebsiella pneumoniae, OligoCF-5/20 0G, read-out: MIC
[18] = Table 1, V4 ACB (Libya), OligoCF-5/20 0G
[19] = Table 1, V4 ACB (Libya), OligoCF-5/20 +2% G
[20] = Table 1, V4 ACB (Libya), OligoCF-5/20 +6% G
[21] = Table 1, V4 ACB (Libya), OligoCF-5/20 +10% G
[22] = Table 7, V4 MDR Acin baum (Libya), M-block oligomer 0M
[23] = Table 7, V4 MDR Acin baum (Libya), M-block oligomer +2% M
[24] = Table 7, V4 MDR Acin baum (Libya), M-block oligomer +6% M

## O=C(O)c1cn(C2CC2)c2cc(N3CCNCC3)c(F)cc2c1=O [Ciprofloxacin]
[1]; [13]
  MIC: > 8 µg/mL
[1]; [14]
  MIC: > 8 µg/mL
[1]; [15]
  MIC: 8 µg/mL (≈ 24.1 µM)
[1]; [16]
  MIC: 8 µg/mL (≈ 24.1 µM)
[2]; [17]
  MIC: 64 µg/mL (≈ 193 µM)
[2]; OligoCF-5/20 +2% G
  MIC: 64 µg/mL (≈ 193 µM)
[2]; OligoCF-5/20 +6% G
  MIC: 256^‡ μg/ml
[2]; OligoCF-5/20 +10% G
  MIC: 256^‡ μg/ml
[3]; OligoCF-5/20 0G
  MIC: -64^† μg/ml
[3]; OligoCF-5/20 +2% G
  MIC: 32^† μg/ml
[3]; OligoCF-5/20 +6% G
  MIC: 32^† μg/ml
[3]; OligoCF-5/20 +10% G
  MIC: 32^† μg/ml
[4]; Table 8, G-block (OligoCF-5/20) 0%
  MIC: > 8 µg/mL
[4]; Table 8, G-block (OligoCF-5/20) 2%
  MIC: > 8 µg/mL
[4]; Table 8, G-block (OligoCF-5/20) 6%
  MIC: > 8 µg/mL
[4]; Table 8, G-block (OligoCF-5/20) 10%
  MIC: > 8 µg/mL
[5]; [18]
  MIC: 64 µg/mL (≈ 193 µM)
[5]; [19]
  MIC: 32 µg/mL (≈ 96.6 µM)
[5]; [20]
  MIC: 16 µg/mL (≈ 48.3 µM)
[5]; [21]
  MIC: 16 µg/mL (≈ 48.3 µM)
[5]; [22]
  MIC: 64 µg/mL (≈ 193 µM)
[5]; [23]
  MIC: 64 µg/mL (≈ 193 µM)
[5]; [24]
  MIC: 64 µg/mL (≈ 193 µM)
[5]; Example 1, Acinetobacter baumannii isolate
  effect in combination with alginate oligomers: more positive effect
[5]; Table 3, MDR Acinetobacter baumannii isolate
  change of MIC in combination with azithromycin by alginate oligomer: reduced
[6]; [13]
  MIC: 0.063 µg/mL (≈ 0.19 µM)
[6]; [14]
  MIC: 0.031 µg/mL (≈ 0.0936 µM)
[6]; [15]
  MIC: 0.031 µg/mL (≈ 0.0936 µM)
[6]; [16]
  MIC: 0.031 µg/mL (≈ 0.0936 µM)
[7]; G-block (OligoCF-5/20) 0%
  MIC: > 8 µg/mL
[7]; G-block (OligoCF-5/20) 2%
  MIC: > 8 µg/mL
[7]; G-block (OligoCF-5/20) 6%
  MIC: > 8 µg/mL
[7]; G-block (OligoCF-5/20) 10%
  MIC: > 8 µg/mL
[8]; OligoCF-5/20 +2% G
  MIC: 0.0625 µg/mL (≈ 0.189 µM)
[8]; OligoCF-5/20 +6% G
  MIC: 0.0625 µg/mL (≈ 0.189 µM)
[8]; OligoCF-5/20 +10% G
  MIC: 0.0312 µg/mL (≈ 0.0943 µM)
[9]; OligoCF-5/20 +2% G
  MIC: 0.0625 µg/mL (≈ 0.189 µM)
[9]; OligoCF-5/20 +6% G
  MIC: 0.0312 µg/mL (≈ 0.0943 µM)
[9]; OligoCF-5/20 +10% G
  MIC: 0.0312 µg/mL (≈ 0.0943 µM)
[10]; Klebsiella pneumoniae (5712, Wales, V12) MDR, G-block (OligoCF-5/20) 0%
  MIC: > 8 µg/mL
[10]; Klebsiella pneumoniae (5712, Wales, V12) MDR, G-block (OligoCF-5/20) 2%
  MIC: > 8 µg/mL
[10]; Klebsiella pneumoniae (5712, Wales, V12) MDR, G-block (OligoCF-5/20) 6%
  MIC: > 8 µg/mL
[10]; Klebsiella pneumoniae (5712, Wales, V12) MDR, G-block (OligoCF-5/20) 10%
  MIC: > 8 µg/mL
[10]; Klebsiella pneumoniae (IR25, India, V6) MDR, G-block (OligoCF-5/20) 2%
  MIC: 64 µg/mL (≈ 193 µM)
[10]; Klebsiella pneumoniae (IR25, India, V6) MDR, G-block (OligoCF-5/20) 6%
  MIC: 64 µg/mL (≈ 193 µM)
[10]; Klebsiella pneumoniae (IR25, India, V6) MDR, G-block (OligoCF-5/20) 10%
  MIC: 64 µg/mL (≈ 193 µM)
[10]; Klebsiella pneumoniae (K3, India, V8) MDR, G-block (OligoCF-5/20) 0%
  MIC: 32 µg/mL (≈ 96.6 µM)
[10]; Klebsiella pneumoniae (K3, India, V8) MDR, G-block (OligoCF-5/20) 2%
  MIC: 32 µg/mL (≈ 96.6 µM)
[10]; Klebsiella pneumoniae (K3, India, V8) MDR, G-block (OligoCF-5/20) 6%
  MIC: > 1020 µg/mL
[10]; Klebsiella pneumoniae (K3, India, V8) MDR, G-block (OligoCF-5/20) 10%
  MIC: > 1020 µg/mL
[11]; G-block (OligoCF-5/20) 0%
  MIC: 32 µg/mL (≈ 96.6 µM)
[11]; G-block (OligoCF-5/20) 2%
  MIC: 32 µg/mL (≈ 96.6 µM)
[11]; G-block (OligoCF-5/20) 6%
  MIC: > 1020 µg/mL
[11]; G-block (OligoCF-5/20) 10%
  MIC: > 1020 µg/mL
Streptococcus oralis; G-block (OligoCF-5/20) 0%, read-out: MIC
  MIC: 32 µg/mL (≈ 96.6 µM)
Streptococcus oralis; G-block (OligoCF-5/20) 2%
  MIC: < 0.0625 µg/mL
Streptococcus oralis; G-block (OligoCF-5/20) 6%, read-out: MIC
  MIC: 2 µg/mL (≈ 6.04 µM)
Streptococcus oralis; G-block (OligoCF-5/20) 10%, read-out: MIC
  MIC: 2 µg/mL (≈ 6.04 µM)

## C[C@@H](O)[C@H]1C(=O)N2C(C(=O)O)=C(S[C@@H]3CN[C@H](C(=O)N(C)C)C3)[C@H](C)[C@H]12 [Meropenem]
[12]; Acinetobacter lwoffii, OligoCF-5/20 0G, read-out: MIC
  MIC: 1 µg/mL (≈ 2.61 µM)
[12]; OligoCF-5/20 +2% G
  MIC: 0.5^† μg/ml
[12]; OligoCF-5/20 +6% G
  MIC: <0.25^† μg/ml
[12]; OligoCF-5/20 +10% G
  MIC: <0.25^† μg/ml
[2]; [17]
  MIC: < 0.25 µg/mL
[2]; OligoCF-5/20 +2% G
  MIC: <0.25 µg/mL
[2]; OligoCF-5/20 +6% G
  MIC: <0.25 µg/mL
[2]; OligoCF-5/20 +10% G
  MIC: <0.25 µg/mL
[3]; Acinetobacter baumannii, OligoCF-5/20 0G, read-out: MIC
  MIC: 16 µg/mL (≈ 41.7 µM)
[3]; OligoCF-5/20 +2% G
  MIC: 8^† μg/ml
[3]; OligoCF-5/20 +6% G
  MIC: 8^† μg/ml
[3]; OligoCF-5/20 +10% G
  MIC: 4^† μg/ml
[5]; [18]
  MIC: < 4 µg/mL
[5]; [19]
  MIC: < 4 µg/mL
[5]; [20]
  MIC: < 4 µg/mL
[5]; [21]
  MIC: < 4 µg/mL
[5]; [22]
  MIC: 16 µg/mL (≈ 41.7 µM)
[5]; [23]
  MIC: 32 µg/mL (≈ 83.4 µM)
[5]; [24]
  MIC: 16 µg/mL (≈ 41.7 µM)
[5]; Table 7, V4 MDR Acin baum (Libya), M-block oligomer +10% M
  MIC: 8 µg/mL (≈ 20.9 µM)
[8]; OligoCF-5/20 0G
  MIC: 2 µg/mL (≈ 5.22 µM)
[8]; OligoCF-5/20 +2% G
  MIC: 2 µg/mL (≈ 5.22 µM)
[8]; OligoCF-5/20 +6% G
  MIC: < 1 µg/mL
[8]; OligoCF-5/20 +10% G
  MIC: < 1 µg/mL
[9]; OligoCF-5/20 0G
  MIC: < 1 µg/mL
[9]; OligoCF-5/20 +2% G
  MIC: < 1 µg/mL
[9]; OligoCF-5/20 +6% G
  MIC: < 1 µg/mL
[9]; OligoCF-5/20 +10% G
  MIC: < 1 µg/mL
